# Laboratory results published in US4473578A, “β-Lactam antibiotics and their use” (Beecham Group Limited, priority 1979, dated 1984).
# Tests used:
# Experiment in all cases: Antibacterial effectiveness in agar
# Assay type in all cases: cell-based
# [1] = system: Bacteroides fragilis 2118; details: in agar; Bacteroides fragilis 2118; read-out: M.I.C.
# Description: (§1) b. Antibacterial effectiveness of the compound of […]
# [2] = system: Bacteroides fragilis WS12; details: in agar; Bacteroides fragilis WS12; read-out: M.I.C.
# Description: as §1
# [3] = system: Bacteroides fragilis WS41; details: in agar; Bacteroides fragilis WS41; read-out: M.I.C.
# Description: as §1
# [4] = system: Enterobacter cloacea T749; details: in agar; Enterobacter cloacea T749; read-out: M.I.C.
# Description: as §1
# [5] = system: Escherichia coli JT20R+
# Description: as §1
# [6] = system: Escherichia coli NCTC 15418; details: NCTC15418; in agar; Escherichia coli NCTC 15418; read-out: M.I.C.
# Description: as §1
# [7] = system: Klebsiella aerogenes Va2R+; details: in agar; Klebsiella aerogenes Va2R+; read-out: M.I.C.
# Description: as §1
# [8] = system: Proteus morganii I; details: Morganella morganii; in agar; Proteus morganii I; read-out: M.I.C.
# Description: as §1
# [9] = system: Serratia marcescens SM27; details: in agar; Serratia marcescens SM27; read-out: M.I.C.
# Description: as §1
# [10] = system: Serratia marcescens Wo146; details: in agar; Serratia marcescens Wo146; read-out: M.I.C.
# Description: as §1
# [11] = system: Staphylococcus aureus ME9+; details: in agar; Staphylococcus aureus ME9+; read-out: M.I.C.
# Description: as §1
# [12] = system: Staphylococcus aureus T150+; details: in agar; Staphylococcus aureus T150+; read-out: M.I.C.
# Description: as §1
smiles,measurement,setting,value
"CC(=O)N/C=C/SC1=C(C(=O)O)N2C(=O)[C@@H]([C@H](C)OS(=O)(=O)O)[C@H]2C1 [MM 13902, reference compound]",MIC,[1],0.2 µg/mL
same,MIC,[2],0.2 µg/mL
same,MIC,[3],0.4 µg/mL
same,MIC,[4],12.5 µg/mL
same,MIC,[5],1.6 µg/mL
same,MIC,[6],≤ 0.1 µg/mL
same,MIC,[7],6.2 µg/mL
same,MIC,[8],0.2 µg/mL
same,MIC,[9],1.6 µg/mL
same,MIC,[10],3.1 µg/mL
same,MIC,[11],3.1 µg/mL
same,MIC,[12],1.6 µg/mL
